Assay results published in US10125139B2, “Pesticidally active polycyclic derivatives with sulfur substituted five-membered ring heterocycles” (Syngenta Participations AG, priority 2015, dated 2018).

Columns and labels:
Format in all cases: in vivo
[1] = tested on: Myzus persicae (Green Peach Aphid); assay: Example B5: Myzus persicae feeding/contact activity, sunflower leaf discs; settings: foliar, 144 h, application rate of 200 ppm, 6 days after infestation
Protocol: Example B5: Myzus persicae (Green Peach Aphid): Feeding/Contact Activity
Sunflower leaf discs were placed onto agar in a 24-well microtiter plate and sprayed with aqueous test solutions prepared from 10,000 ppm DMSO stock solutions. After drying, the leaf discs were infested with an aphid population of mixed ages. The samples were assessed for mortality 6 days after infestation.

[2] = tested on: Euschistus heros (Neotropical Brown Stink Bug); assay: Example B3: Euschistus heros, sprayed soybean leaves, N2 nymphs; settings: 120 h, application rate of 200 ppm, 5 days after infestation, read-out: effect in at least one of the two categories (mortality or growth inhibition)
Protocol: Example B3: Euschistus heros (Neotropical Brown Stink Bug)
Soybean leaves on agar in 24-well microtiter plates were sprayed with aqueous test solutions prepared from 10,000 ppm DMSO stock solutions. After drying the leaves were infested with N2 nymphs. The samples were assessed for mortality and growth inhibition in comparison to untreated samples 5 days after infestation. The following compounds gave an effect of at least 80% in at least one of the two categories (mortality or growth inhibition) at an application rate of 200 ppm: […]

[3] = tested on: Diabrotica balteata (Corn Root Worm); assay: Example B2: Diabrotica balteata, sprayed maize sprouts, L2 larvae; settings: for percent effect (mortality or growth inhibition) at 200 ppm: Diabrotica balteata, 96 h, application rate of 200 ppm, 4 days after infestation, L2 larvae, read-out: effect in at least one of the two categories (mortality or growth inhibition)
Protocol: Example B2: Diabrotica balteata (Corn Root Worm)
Maize sprouts placed onto an agar layer in 24-well microtiter plates were treated with aqueous test solutions prepared from 10,000 ppm DMSO stock solutions by spraying. After drying, the plates were infested with L2 larvae (6 to 10 per well). The samples were assessed for mortality and growth inhibition in comparison to untreated samples 4 days after infestation. The following compounds gave an effect of at least 80% in at least one of the two categories (mortality or growth inhibition) at an application rate of 200 ppm:
(§1) Insecticidal action against Diabrotica balteata (Corn root worm), Plutella xylostella (Diamond black moth), and Spodoptera littoralis (Egyptian cotton leaf worm). The tests were carried out as described in biological examples B2, B8 and B9, respectively, with the larval feeding/contact activity (mortality only) being reported as Breakpoint (BP80) values in parts per million (i.e. the lowest concentration which gives 80% larval mortality).

[4] = tested on: Spodoptera littoralis (Egyptian Cotton Leaf Worm); assay: Example B9: Spodoptera littoralis, cotton leaf discs, L1 larvae; settings: for percent control (mortality, anti-feedant effect or growth inhibition) at 200 ppm: Spodoptera littoralis, foliar, 72 h, application rate of 200 ppm, 3 days after infestation, L1 larvae
Protocol: Example B9: Spodoptera littoralis (Egyptian Cotton Leaf Worm)
Cotton leaf discs were placed onto agar in 24-well microtiter plates and sprayed with aqueous test solutions prepared from 10,000 ppm DMSO stock solutions. After drying the leaf discs were infested with five L1 larvae. The samples were assessed for mortality, anti-feeding effect, and growth inhibition in comparison to untreated samples 3 days after infestation. Control of Spodoptera littoralis by a test sample is given when at least one of the categories mortality, anti-feedant effect, and growth inhibition is higher than the untreated sample.
as §1

[5] = tested on: Plutella xylostella (Diamond Back Moth); assay: Example B8: Plutella xylostella, artificial diet, L2 larvae; settings: for percent effect (mortality or growth inhibition) at 200 ppm: Plutella xylostella, 120 h, application rate of 200 ppm, 5 days after infestation, L2 larvae, read-out: effect in at least one of the two categories (mortality or growth inhibition)
Protocol: Example B8: Plutella xylostella (Diamond Back Moth)
24-well microtiter plates with artificial diet were treated with aqueous test solutions prepared from 10,000 ppm DMSO stock solutions by pipetting. After drying, the plates were infested with L2 larvae (10 to 15 per well). The samples were assessed for mortality and growth inhibition in comparison to untreated samples 5 days after infestation. The following compounds gave an effect of at least 80% in at least one of the two categories (mortality or growth inhibition) at an application rate of 200 ppm:
as §1

| SMILES | mortality at 200 ppm [1] | percent effect (mortality or growth inhibition) at 200 ppm [2] | percent effect (mortality or growth inhibition) at 200 ppm [3] | percent control (mortality, anti-feedant effect or growth inhibition) at 200 ppm [4] | percent effect (mortality or growth inhibition) at 200 ppm [5] | BP80 (Breakpoint, lowest concentration which gives 80% larval mortality) Diabrotica balteata ([3]; larval feeding/contact activity, mortality only, test as in B2) | BP80 (Breakpoint, lowest concentration which gives 80% larval mortality) Spodoptera littoralis ([4]; larval feeding/contact activity, mortality only, test as in B9) | BP80 (Breakpoint, lowest concentration which gives 80% larval mortality) Plutella xylostella ([5]; larval feeding/contact activity, mortality only, test as in B8) |
| --- | --- | --- | --- | --- | --- | --- | --- | --- |
| CCSc1nc(Br)sc1-c1nc2cc(C(F)(F)F)ncc2n1C [Example I-5, 2-bromo-4-ethylsulfanyl-5-[3-methyl-6-(trifluoromethyl)imidazo[4,5-c]pyridin-2-yl]thiazole] | ≥ 80% | – | – | – | – | – | – | – |
| CCS(=O)(=O)c1cc(I)sc1-c1nc2cc(SC(F)(F)F)ncc2n1C [Example I-8, 2-(3-ethylsulfonyl-5-iodo-2-thienyl)-3-methyl-6-(trifluoromethylsulfanyl)imidazo[4,5-c]pyridine] | ≥ 80% | ≥ 80% | ≥ 80% | ≥ 80% | ≥ 80% | – | – | – |
| CCS(=O)(=O)c1sc(Br)nc1-c1nc2cc(C(F)(F)F)ncc2n1C [Example I-9, 2-bromo-5-ethylsulfonyl-4-[3-methyl-6-(trifluoromethyl)imidazo[4,5-c]pyridin-2-yl]thiazole] | – | – | ≥ 80% | – | – | – | – | – |
| CCSc1sc(Br)nc1-c1nc2cc(SC(F)(F)F)ncc2n1C [Example I-10] | – | – | – | – | ≥ 80% | – | – | – |
| CCS(=O)(=O)c1nc(Br)sc1-c1nc2cc(SC(F)(F)F)ncc2n1C [Example I-11] | – | – | ≥ 80% | – | – | – | – | – |
| CCS(=O)(=O)c1cc(-n2ccc(C(F)(F)F)n2)sc1-c1nc2cc(C(F)(F)F)ncc2n1C [Example P-2, 2-[3-ethylsulfonyl-5-[3-(trifluoromethyl)pyrazol-1-yl]-2-thienyl]-3-methyl-6-(trifluoromethyl)imidazo[4,5-c]pyridine] | ≥ 80% | ≥ 80% | ≥ 80% | ≥ 80% | ≥ 80% | – | – | – |
| CCSc1cc(-n2ccc(C(F)(F)F)n2)sc1-c1nc2cc(C(F)(F)F)ncc2n1C [Example P-3, 2-[3-ethylsulfanyl-5-[3-(trifluoromethyl)pyrazol-1-yl]-2-thienyl]-3-methyl-6-(trifluoromethyl)imidazo[4,5-c]pyridine] | – | – | ≥ 80% | – | ≥ 80% | – | – | – |
| CCSc1c(-c2nc3cc(C(F)(F)F)ncc3n2C)sc(-c2ccc(Cl)cc2)c1Cl [Example P-7, 2-[4-chloro-5-(4-chlorophenyl)-3-ethylsulfanyl-2-thienyl]-3-methyl-6-(trifluoromethyl)imidazo[4,5-c]pyridine] | – | ≥ 80% | ≥ 80% | ≥ 80% | ≥ 80% | – | – | – |
| CCS(=O)(=O)c1c(-c2nc3cc(C(F)(F)F)ncc3n2C)sc(-c2ccc(Cl)cc2)c1Cl [Example P-8, 2-[4-chloro-5-(4-chlorophenyl)-3-ethylsulfonyl-2-thienyl]-3-methyl-6-(trifluoromethyl)imidazo[4,5-c]pyridine] | – | – | ≥ 80% | ≥ 80% | ≥ 80% | – | – | – |
| CCS(=O)(=O)c1cc(-n2ccc(C(F)(F)F)n2)sc1-c1nc2cc(C(F)(F)F)nnc2n1C [Example P-12, 6-[3-ethylsulfonyl-5-[3-(trifluoromethyl)pyrazol-1-yl]-2-thienyl]-7-methyl-3-(trifluoromethyl)imidazo[4,5-c]pyridazine] | ≥ 80% | ≥ 80% | ≥ 80% | ≥ 80% | ≥ 80% | – | – | – |
| CCS(=O)(=O)c1cc(-c2ncccn2)sc1-c1nc2cc(SC(F)(F)F)ncc2n1C [Example P-16, 2-(3-ethylsulfonyl-5-pyrimidin-2-yl-2-thienyl)-3-methyl-6-(trifluoromethylsulfanyl)imidazo[4,5-c]pyridine] | – | ≥ 80% | ≥ 80% | ≥ 80% | ≥ 80% | – | – | – |
| CCS(=O)(=O)c1sc(-c2ccc(Cl)cc2)nc1-c1nc2cc(C(F)(F)F)ncc2n1C [Example P-19, 2-(4-chlorophenyl)-5-ethylsulfonyl-4-[3-methyl-6-(trifluoromethyl)imidazo[4,5-c]pyridin-2-yl]thiazole] | – | – | ≥ 80% | ≥ 80% | – | – | – | – |
| CCS(=O)(=O)c1sc(-n2ccc(C(F)(F)F)n2)nc1-c1nc2cc(C(F)(F)F)ncc2n1C [Example P-20, 5-ethylsulfonyl-4-[3-methyl-6-(trifluoromethyl)imidazo[4,5-c]pyridin-2-yl]-2-[3-(trifluoromethyl)pyrazol-1-yl]thiazole] | – | ≥ 80% | ≥ 80% | ≥ 80% | ≥ 80% | – | – | – |
| CCSc1sc(-n2ccc(C(F)(F)F)n2)nc1-c1nc2cc(C(F)(F)F)ncc2n1C [Example P-21, 5-ethylsulfanyl-4-[3-methyl-6-(trifluoromethyl)imidazo[4,5-c]pyridin-2-yl]-2-[3-(trifluoromethyl)pyrazol-1-yl]thiazole] | – | – | ≥ 80% | – | – | – | – | – |
| CCS(=O)(=O)c1sc(C2CC2)nc1-c1nc2cc(C(F)(F)F)ncc2n1C [Example P-22, 2-cyclopropyl-5-ethylsulfonyl-4-[3-methyl-6-(trifluoromethyl)imidazo[4,5-c]pyridin-2-yl]thiazole] | ≥ 80% | ≥ 80% | ≥ 80% | ≥ 80% | ≥ 80% | – | – | – |
| CCS(=O)(=O)c1sc(-c2ncccn2)nc1-c1nc2cc(C(F)(F)F)ncc2n1C [Example P-23, 5-ethylsulfonyl-4-[3-methyl-6-(trifluoromethyl)imidazo[4,5-c]pyridin-2-yl]-2-pyrimidin-2-yl-thiazole] | – | – | ≥ 80% | ≥ 80% | ≥ 80% | – | – | – |
| CCS(=O)(=O)c1sc(-c2ccc(Cl)cc2)nc1-c1nc2cc(SC(F)(F)F)ncc2n1C [Example P-24] | – | – | – | ≥ 80% | ≥ 80% | – | – | – |
| CCS(=O)(=O)c1sc(-c2cc(F)cc(F)c2)nc1-c1nc2cc(SC(F)(F)F)ncc2n1C [Example P-26] | – | – | ≥ 80% | ≥ 80% | ≥ 80% | – | – | – |
| CCS(=O)(=O)c1cc(C(F)(F)F)sc1-c1nc2cc(C(F)(F)F)ncc2n1C [Example V14.01, reference compound] | – | – | – | – | – | 50 ppm | 50 ppm | 50 ppm |
